Measured values published in the COVID Moonshot data (paper PMC11187573), “Identification of SARS-CoV-2 Mpro inhibitors through deep reinforcement learning for de novo drug design and computational chemistry approaches” (RSC Medicinal Chemistry, 2024).

What was measured:
[1] = target: SARS-CoV-2 Main Protease (SARS-CoV-2) (UniProt P0DTD1)
[2] = target: SARS-CoV-2 Main Protease (SARS-CoV-2) (UniProt P0DTD1); remark: listed apart in the source

| Compound | inhibition ([1]; 50.0 µM) [%] | relative solubility at 20 uM | relative solubility at 100 uM | inhibition ([2]; 20.0 µM) [%] | inhibition ([2]; 50.0 µM) [%] | inhibition ([1]; 20.0 µM) [%] | IC50 [1] [µM] | IC50 [2] [µM] |
| --- | --- | --- | --- | --- | --- | --- | --- | --- |
| O=C(c1cc(=O)[nH]c2cc(F)ccc12)N1CCN(S(=O)(=O)c2ccccc2)CC1 | 0 | 0.98 | 0.99 | 12.6 | 30.7 |  |  |  |
| O=C(NCCNc1ccccc1)c1cc(=O)[nH]c2ccccc12 | 35.4 | 1 | 0.98 | 32 | 61.6 |  |  |  |
| CC(=O)N1CCN(S(=O)(=O)C2=CC[SH]=C2)CC1 | 3.62 | 0.99 | 1 |  | -20.6 | 0 |  |  |
| COc1ccccc1N1CCN(C(=O)c2cc(=O)[nH]c3ccccc23)CC1 | 14.8 | 1 | 0.99 | 39 | 62.8 |  |  |  |
| COC1CCN(c2ccc(S(N)(=O)=O)cc2)CC1 | 35.4 | 1 | 1 | 2.98 | 6.82 | 29.7 |  |  |
| CS(=O)(=O)N(CCc1ccccc1)CC1CCN(C(=O)CCl)CC1 | 73.3 | 0.96 | 0.89 | 23.9 | 26.1 |  |  |  |
| N#Cc1ccc(Nc2ccc(NC(=O)Nc3cccnc3)cc2)nc1 | 0 | 1 | 0.91 | -1.31 | -3.7 | 0 |  |  |
| Cc1ncncc1NC(=O)Nc1ccccc1 | 20.1 | 0.99 | 0.99 | -2.06 | -0.628 | 6.04 |  |  |
| CCn1c(=O)n(CC(=O)Nc2c(C)ccnc2C)c2ccccc21 | 0 | 1 | 1 | -1.64 | -2.86 |  |  |  |
| Cc1cc(C)c(C)c(S(=O)(=O)N2CCN(C(=O)c3cc(=O)[nH]c4ccccc34)CC2)c1C | 88.1 | 0.75 | 0.65 | 84.4 | 92.9 | 81.7 | 3.75 |  |
| C#Cc1ccc(CNC(=O)N2CCOCC2)cc1 | 0 | 1 | 1 | 1.4 | 2.46 | 0 |  |  |
| NS(=O)(=O)c1ccc2c(c1)CN(CC1CCN(C(=O)CCl)CC1)CC2 | 91.1 | 1 | 1 | 30.8 | 60.3 |  | 31.2 |  |
| O=C(CCl)N1CCN(C(c2ccccc2)C2CCOCC2)CC1 (stereo not given) | 84.8 | 1 | 0.99 | 80.8 | 103 |  | 1.69 | 20.7 |
| CCCSCC(=O)C(C#N)C(=O)Nc1ccc(F)cc1F (stereo not given) | 3.54 | 1.01 | 1.01 |  | 21.8 | 3.06 |  |  |
| C=CC(=O)N1CCCC(c2nc3ccccc3s2)C1 (stereo not given) | 0 | 0.99 | 0.99 |  | 14.5 | 0 |  |  |
| O=C(CCl)NC(CO)c1cccc(Cl)c1 (stereo not given) | 45.3 | 1 | 0.99 |  | 51.6 | 16 |  |  |
| Cc1ccncc1NC(=O)Cc1cccc(I)c1 | 64.3 | 1 | 1 | 17.4 | 39.7 |  | 69.1 |  |
| CC(C(=O)Nc1cccc(NC2CCCC2)c1)c1cnccn1 (stereo not given) | -2.15 | 1 | 0.98 | -2.77 | 0.913 | 0 |  |  |
| Cc1ccccc1CN1CCN(C(=O)C(F)C(C)C)CC1 (stereo not given) | 10.3 | 1 | 1 | 2.74 | 6.7 | 0 |  |  |

| Compound | inhibition ([1]; 50.0 µM) [%] | relative solubility at 20 uM | relative solubility at 100 uM | inhibition ([2]; 20.0 µM) [%] | inhibition ([2]; 50.0 µM) [%] | inhibition ([1]; 20.0 µM) [%] | IC50 [1] [µM] | IC50 [2] [µM] |
| --- | --- | --- | --- | --- | --- | --- | --- | --- |
| CNC(=O)OC1CCN(C(=O)c2ccncc2)CC1 | 2.15 | 1 | 1 |  | -25.3 | 0.65 |  |  |
| COc1cc(NC(=O)C(=O)Nc2cc(OC)c(OC)c(OC)c2)cc(OC)c1OC |  | 0.99 | 0.92 | -9.4 | 4.05 | 0.456 |  |  |
| C=CC(=O)N(c1cc(C(C)(C)C)on1)C(C(=O)NCCc1cccc(F)c1)c1cncc(C)c1 (stereo not given) | 0 | 1 | 0.91 | 17.5 | 24.8 |  |  |  |
| N#Cc1ncccc1NC(=O)Cc1cccc(Cl)c1 | 0 | 0.99 | 1 | -10.2 | -15.7 | 0 |  |  |
| NS(=O)(=O)c1ccc(N2CCSCC2)cc1 | 48.2 | 1 | 1 |  | -25.9 | 29.1 |  |  |
| Cc1ccncc1NC(=O)c1ccc(NC(=O)Nc2cccnc2)cc1 | 0 | 1 | 0.99 |  | -23 | 3.1 |  |  |
| Cc1cccc(NC2CCN(c3ccc(S(N)(=O)=O)cc3)CC2)c1 | 45.9 | 0.96 | 0.87 | -2.59 | -0.838 | 39.4 |  |  |
| Cc1ccc(NC(=O)Cc2cccc(Cl)c2)cn1 | 0 | 0.99 | 1 | 0.36 | 3.35 |  |  |  |
| O=C(Cn1cccn1)N1CCN(S(=O)(=O)c2cccc(F)c2)CC1 |  | 1 | 1 | -11.9 | 1 | 0 |  |  |
| Cc1ncc2c(n1)CCC(NC(=O)NCc1cccc(N3C(=O)NC4(CCCC4)C3=O)c1)C2 (stereo not given) | 0 | 0.99 | 0.97 | -7.81 | -6.65 |  |  |  |
| O=C(c1ccccc1)N1CCN(C(=O)c2nn(-c3ccccc3C(F)(F)F)cc2O)CC1 | 0 | 0.99 | 0.95 | -48 | -1.44 |  |  |  |
| C=CC(=O)N(c1cc(C(C)(C)C)on1)C(C(=O)Nc1ccc(OC)cc1C)c1cccnc1 (stereo not given) |  | 1 | 0.91 | 12.9 | 23.4 | 14.3 |  |  |
| Cc1cccc(CS(=O)(=O)N2CCC(C(N)=O)CC2)c1 | 0 | 1.01 | 1.01 | -20.4 | 0.138 |  |  |  |
| CC(C)CCNC(=O)C(CC(C)C)NC(=O)C1OC1C(=O)O (stereo not given) | 0 | 1 | 1 | 0.736 | -2.95 |  |  |  |
| C=CC(=O)N(c1ccc(C(C)C)nc1)C(C(=O)Nc1ccc(OC)cc1C)c1cccnc1 (stereo not given) |  | 0.98 | 0.93 | 6.56 | 10.4 | 0 |  |  |
| Cc1ccncc1NC(=O)Cc1cccc(F)c1 | 40.9 | 1.01 | 1 | 39.6 | 65.3 |  |  |  |
| C=CC(=O)N(c1ccc(C(F)(F)F)cc1)C(C(=O)NCCc1cccc(F)c1)c1cncc(Cl)c1 (stereo not given) | 82.1 | 0.94 | 0.28 | 50.2 | 68.2 |  | 4.84 |  |
| C=CC(=O)N(c1ccc(C2(C)CC2)cc1)C(C(=O)Nc1ccc(OC)cc1)c1cccnc1 (stereo not given) | 0 | 0.96 | 0.62 |  | 12.6 | 0 |  |  |
| N#Cc1ccc(CNC(=O)Cc2c[nH]c3ncccc23)nc1 |  | 1 | 1 | 4.15 | 0.616 | 0 |  |  |
